Data as given in US8785455B2, “Polymorph of linagliptin benzoate” (Sandoz AG, priority 2011, dated 2014).

Tests used:
[1] = stability upon storage at conditions of high relative humidity; type: physicochemical
[2] = dynamic water vapor sorption/desorption (moisture sorption isotherm); type: physicochemical; conditions: for hygroscopicity (in words): comparison of moisture sorption isotherms, FIGS. 4 and 5; for water uptake: from about 3 to 90% relative humidity at about 25° C., w % = weight % of water in relation to total weight
Description: The water uptake of the crystalline forms of Linagliptin benzoate was determined by dynamic water vapor sorption/desorption. Therefore both forms were conditioned at about 28% relative humidity (RH) and the initial water content was determined by Karl-Fischer-titration. Then a moisture sorption experiment was performed with an SPSx-1μ moisture sorption analyzer (Projekt Messtechnik, Ulm) by stepwise increasing the RH in the range of about 3% RH to about 90% RH within approximately 2.5 days at 25±0.1° C.

| stability upon storage [1] | water uptake [2] | hygroscopicity (in words) ([2]; listed as crystalline form of Linagliptin benzoate of WO2010/072776 A1) | SMILES | hygroscopicity (in words) [2] |
| --- | --- | --- | --- | --- |
| more stable than form I | about 2.0 w % |  | CC#CCn1c(N2CCC[C@@H](N)C2)nc2c1c(=O)n(Cc1nc(C)c3ccccc3n1)c(=O)n2C [Linagliptin benzoate form II, Linagliptin benzoate] | significantly less hygroscopic than crystalline Linagliptin benzoate of WO2010/072776 A1 |
|  | about 9.5 w % | quite hygroscopic | CC#CCn1c(N2CCC[C@@H](N)C2)nc2c1c(=O)n(Cc1nc(C)c3ccccc3n1)c(=O)n2C [crystalline Linagliptin benzoate of WO2010/072776 A1] [reference compound] |  |
